Measurements: US20040235920A1, “Novel use of substituted aminomethyl chromans for the treatment of movement disorders and of adverse effects induced by drugs administered to treat extrapyramidal movement disorders” (priority 2001, published 2004)

What was measured:
[1] = system: 3-NP treated rats; experiment: Systemic 3-nitropropionic acid (3-NP) model in rats, nocturnal activity; format: in vivo, rat
Experimental: A typical animal model is the systemic 3-nitropropionic acid (3-NP) model in rats according to C. V. Borlongan et al., Brain Res., 1995; 697: 254-257. Rats are treated with injections of the selective striatal neurotoxin 3-NP i.p. every fourth day (C. V. Borlongan et al., Brain Res. Protocols, 1997; 1: 253-257). After two injections of 3-NP, rats display nocturnal hyperactivity reflecting symptoms of early Huntington's disease, whereas rats treated with four injections of 3-NP display nocturnal akinesia (hypoactivity) reflecting symptoms of late Huntington's disease. Nocturnal activity is automatically measured in conventional acitivity cages by infrared beams. (−)-(R)-2-{4-[[3,4-dihydro-2H-benzopyran-2-yl)-methyl]amino]butyl}-1,2-benzoisothiazol-3-(2H)-on-1,1-dioxide or a pharmaceutical acceptable salt thereof reduced both the nocturnal hyperactivity and akinesia.

[2] = system: Parkinsonian cynomolgus monkey; experiment: MPTP Parkinsonian cynomolgus monkey chronically treated with l-dopa (Abnormal Involuntary Movement Scale, rating for psychotic states); format: in vivo; details: MPTP monkeys, long-term l-dopa
Experimental: Treatment of adverse effects of conventional anti-Parkinsonian drugs as defined above are determined in a modification of the animal model of the Parkinsonian cynomolgus monkey according to P. J. Blanchet et al., Exp. Neurology 1998; 153: 214-222. Monkeys render parkinsonian by repeated injections of 1-methyl-4-phenyl-1,2,3,6-tetrahydropyridine (MPTP). The Parkinsonian monkeys are chronically treated with the standard l-dopa therapy according to P. J. Blanchet et al., Mov. Disord., 1998; 13: 798-802. Longterm treatment with l-dopa induces extrapyramidal motor side effects and psychotic states which are both qualitatively and quantitatively, assessed by the Abnormal Involuntary Movement Scale (P. J. Blanchet et al., Mov. Disord. 1998; 13: 798-802) for different body parts (face, neck, trunk, each limb) and by rating for psychotic states by observing the monkey's attention, reactivity and mobility. (−)-(R)-2-{4-[[3,4-dihydro-2H-benzopyran-2-yl)-methyl]amino]butyl}-1,2-benzoisothiazol-3-(2H)-on-1,1-dioxide reduced overall choreiform dyskinesias and dystonic dyskinesias as well as psychotic states.

[3] = system: rats with posthypoxic myoclonus; experiment: Posthypoxic myoclonus in rats after cardiac arrest; format: in vivo, rat; details: after 8 minutes cardiac arrest
Experimental: A typical animal model for myoclonus is myoclonus induced by an acute hypoxic episode according to D. D. Truong et al., Mov. Dsiord., 1994; 9: 201-206). In this model of posthypoxic myoclonus, rats undergo a cardiac arrest for 8 minutes and are resuscitated thereafter. Myoclonic jerks occur spontaneously but can be provoked by auditory stimulation, too, worsening over the days following cardiac arrest.

[4] = system: Weaver mutant mouse; experiment: Weaver mutant mouse, locomotor activity; format: in vivo; details: activity cages
Source text: (§1) Typical genetic models in mutant animals are the Campus Syndrome in the Pietrain pig according to A. Richter et al. (Exp. Neurology, 1995; 134: 205-213) or the Weaver mutant mouse according to J. R. Simon and B. Ghetti (Mol. Neurobiol., 1994; 9: 183-189). In the Campus Syndrome model, these mutant pigs show a high-frequency tremor when standing and during locomotion, but not while lying at rest. Assessment of tremor is made by accelerometric recording. In the Weaver mutant mouse, degenerative cerebellar atrophy is found in association with tremor, gait instability, and toppling over the sides after a few steps.

[5] = system: rat with nigrostriatal degeneration; experiment: Striatonigral degeneration in the rat (6-hydroxydopamine plus quinolinic acid), turning behavior; format: in vivo; details: automated recorder
Source text: Another more recent animal model is the striatonigral degeneration approach in the rat according to G. K. Wenning et al., J. Neural Transm. Suppl., 1999; 55: 103-113. Rats receive an unilateral injection of 6-hydroxydopamine into the left medial forebrain bundle followed by an injection of quinolinic acid into the ipsilateral striatum inducing nigrostriatal degeneration. The degeneration results in turning behavior to a challenge with dopaminomimetics such as apomorphine or amphetamine. Turning behavior is measured by an automated recorder.

[6] = system: cataleptic rat; experiment: Reversal of catalepsy in rats (oral ED50); format: in vivo; details: result in words
Experimental: Extrapyramidal motor side effects in e.g. rodents are measured by the ability of a drug to induce catalepsy. Catalepsy is defined as a state where an animal continues to remain in an unnormal (nonphysiological ‘uncomfortable’) posture for a long time (e.g.: M. E. Stanley and S. D. Glick, Neuropharmacology, 1996; 15: 393-394; C. J. E. Niemegeers and P. Janssen, Life Sci., 1979, […]). For example, if a hindpaw of a rat is placed on an elevated level, e.g. a platform elevated 3 cm above ground level, a normal rat immediately withdraws the hindpaw from the platform to the ground level. A cataleptic rat remains in this unnatural posture even for minutes.

[7] = system: Pietrain pig; experiment: Campus Syndrome in the Pietrain pig, tremor; format: in vivo; details: when standing and during locomotion
Source text: as §1

[8] = system: patients with Huntington's disease; experiment: Add-on trial in patients with Huntington's disease (AIMS, UHDRS); format: in vivo, human; details: 2.5 to 20 mg b.i.d., typical trial
Experimental: A typical trial to establish the effect of the compounds according to the invention on chorea, voluntary motor performance, and functional disability in patients with Huntington's disease encompasses 32 genetically diagnosed patients. (−)-(R)-2-{4-[[3,4-dihydro-2H-benzopyran-2-yl)-methyl]amino]butyl}-1,2-benzoisothiazol-3-(2H)-on-1,1-dioxide monohydrochloride or placebo is administered as “add on” to the conventional treatment, which is maintained unchanged during the whole study. The dose of blinded medication is titrated over a period of 3 weeks in a range from 2.5 to 20 mg b.i.d. Then the medication is held constant for 1 week. Assessments are performed in the week before and at the last day of the trial. Chorea is scored using the abnormal involuntary movement scale (AIMS, W. Guy, in: ECDEU assessment manual. Rockville Md: US dept. of health, education and welfare, 1976: 534-537), the unified Huntington's disease rating scale (UHDRS, Huntington study group, 1996, Movement Disord, 11: 136-42), and judgement of video recordings. Voluntary motor performance is assessed using the UHDRS motor scale. Patients and their partners complete a questionnaire regarding functional disability.

[9] = system: mutant dystonic hamster; experiment: Mutant dystonic hamster, scoring of dystonic attacks; format: in vivo; details: scoring system
Source text: A typical animal model is the mutant dystonic hamster according to A. Richter and W. Löscher, Prog. Neurobiol. 1998; 54: 633-677. In this genetically dystonic hamsters, dystonic attacks are provoked by taking the animal from the home cage and placing it on a balance. The dystonic syndrome consists of a sequence of abnormal movements, and the severity of the single symptoms is rated by a scoring system.

[10] = Abnormal Involuntary Movement Scale

**Q.** Which results are given for `O=C1c2ccccc2S(=O)(=O)N1CCCCNC[C@H]1CCc2ccccc2O1` [(−)-(R)-2-{4-[[3,4-dihydro-2H-benzopyran-2-yl)-methyl]amino]butyl}-1,2-benzoisothiazol-3-(2H)-on-1,1-dioxide]?
**A.** nocturnal akinesia (hypoactivity) ([1]; after four injections of 3-NP (late Huntington's disease)): reduced; nocturnal hyperactivity ([1]; after two injections of 3-NP (early Huntington's disease)): reduced; dystonic dyskinesias [2, 10]: reduced; overall choreiform dyskinesias [2, 10]: reduced; psychotic states ([2]; rating of attention, reactivity and mobility): reduced; number of auditory-evoked myoclonic jerks [3]: dose-dependently reduce; number of spontaneous myoclonic jerks [3]: dose-dependently reduce; locomotor activity [4]: enhanced locomotor activity; turning behavior induced by amphetamine [5]: dose-dependently antagonized; turning behavior induced by apomorphine [5]: dose-dependently antagonized; potency in reversing catalepsy [6]: extraordinary potency in reversing catalepsy; Campus Syndrome tremor [7]: reduced disabling tremor when standing and during locomotion; involuntary motor performance ([8]; AIMS, UHDRS, video): significant improvement; voluntary motor performance ([8]; UHDRS motor scale): significant improvement; severity of dystonic symptoms [9]: dose-dependently reduced
